Laboratory results from ChEMBL document CHEMBL2384934, “Discovery of 3-phenyl-1H-5-pyrazolylamine derivatives containing a urea pharmacophore as potent and efficacious inhibitors of FMS-like tyrosine kinase-3 (FLT3)” (Bioorg Med Chem, 2013).

How the values were obtained:
MOLM-13 = test: cells; details: Homo sapiens, MOLM-13, 72 h
[1] = biological target: T1, Receptor-type tyrosine-protein kinase FLT3 (Homo sapiens, UniProt P36888); test: biochemical; type: cell-based, Sf9
T1 sequence (P36888 whole entry): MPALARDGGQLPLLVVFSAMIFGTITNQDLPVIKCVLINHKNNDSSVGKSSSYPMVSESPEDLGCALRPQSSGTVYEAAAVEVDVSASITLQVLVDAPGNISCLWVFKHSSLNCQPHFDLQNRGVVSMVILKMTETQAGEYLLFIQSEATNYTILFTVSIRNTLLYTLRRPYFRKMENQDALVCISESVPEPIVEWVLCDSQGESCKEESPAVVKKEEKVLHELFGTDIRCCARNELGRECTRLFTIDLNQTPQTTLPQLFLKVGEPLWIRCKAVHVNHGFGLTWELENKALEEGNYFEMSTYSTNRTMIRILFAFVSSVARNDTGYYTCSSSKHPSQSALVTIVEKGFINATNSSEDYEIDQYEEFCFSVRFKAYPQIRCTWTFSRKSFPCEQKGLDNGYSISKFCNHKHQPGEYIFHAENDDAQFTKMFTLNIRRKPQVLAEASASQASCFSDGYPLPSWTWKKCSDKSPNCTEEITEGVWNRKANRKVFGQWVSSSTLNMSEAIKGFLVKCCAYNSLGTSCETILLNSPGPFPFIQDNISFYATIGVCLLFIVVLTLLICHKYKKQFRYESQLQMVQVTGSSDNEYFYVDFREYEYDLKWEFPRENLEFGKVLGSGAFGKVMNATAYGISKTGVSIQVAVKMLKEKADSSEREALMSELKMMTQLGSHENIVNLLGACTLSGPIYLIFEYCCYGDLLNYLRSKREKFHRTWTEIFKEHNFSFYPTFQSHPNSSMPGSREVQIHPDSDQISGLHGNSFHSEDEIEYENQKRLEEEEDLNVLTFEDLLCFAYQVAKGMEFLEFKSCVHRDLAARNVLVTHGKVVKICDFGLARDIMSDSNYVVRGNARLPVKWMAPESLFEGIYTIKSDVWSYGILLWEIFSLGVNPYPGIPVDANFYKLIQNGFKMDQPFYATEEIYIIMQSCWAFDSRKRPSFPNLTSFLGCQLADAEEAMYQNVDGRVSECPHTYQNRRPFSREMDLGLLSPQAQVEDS
Description: Inhibition of wild type GST tagged FLT3 kinase (567 to 993) (unknown origin) transfected in insect sf9 cells after 4 hrs by wallac counting analysis

Aurora kinase A = biological target: T2, Aurora kinase A (Homo sapiens, UniProt O14965); test: biochemical
T2 sequence (O14965 whole entry): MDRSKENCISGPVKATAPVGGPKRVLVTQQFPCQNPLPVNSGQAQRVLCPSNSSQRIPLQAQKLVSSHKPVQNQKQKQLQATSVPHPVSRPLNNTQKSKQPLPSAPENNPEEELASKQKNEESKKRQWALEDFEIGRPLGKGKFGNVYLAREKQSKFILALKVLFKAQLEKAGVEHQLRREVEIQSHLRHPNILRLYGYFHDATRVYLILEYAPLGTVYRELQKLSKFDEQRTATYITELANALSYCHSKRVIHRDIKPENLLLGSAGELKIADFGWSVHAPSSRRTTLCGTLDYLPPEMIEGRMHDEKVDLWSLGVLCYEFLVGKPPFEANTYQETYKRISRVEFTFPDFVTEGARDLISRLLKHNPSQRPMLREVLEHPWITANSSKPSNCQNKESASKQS
Description: Inhibition of recombinant GST tagged Aurora A kinase (123 to 401) (unknown origin) transfected in insect sf9 cells after 90 mins by wallac counting analysis

[2] = biological target: Vascular endothelial growth factor receptor 2 (Homo sapiens, UniProt P35968); test: biochemical; type: cell-based, Sf9
Chain of Vascular endothelial growth factor receptor 2 (P35968 whole entry): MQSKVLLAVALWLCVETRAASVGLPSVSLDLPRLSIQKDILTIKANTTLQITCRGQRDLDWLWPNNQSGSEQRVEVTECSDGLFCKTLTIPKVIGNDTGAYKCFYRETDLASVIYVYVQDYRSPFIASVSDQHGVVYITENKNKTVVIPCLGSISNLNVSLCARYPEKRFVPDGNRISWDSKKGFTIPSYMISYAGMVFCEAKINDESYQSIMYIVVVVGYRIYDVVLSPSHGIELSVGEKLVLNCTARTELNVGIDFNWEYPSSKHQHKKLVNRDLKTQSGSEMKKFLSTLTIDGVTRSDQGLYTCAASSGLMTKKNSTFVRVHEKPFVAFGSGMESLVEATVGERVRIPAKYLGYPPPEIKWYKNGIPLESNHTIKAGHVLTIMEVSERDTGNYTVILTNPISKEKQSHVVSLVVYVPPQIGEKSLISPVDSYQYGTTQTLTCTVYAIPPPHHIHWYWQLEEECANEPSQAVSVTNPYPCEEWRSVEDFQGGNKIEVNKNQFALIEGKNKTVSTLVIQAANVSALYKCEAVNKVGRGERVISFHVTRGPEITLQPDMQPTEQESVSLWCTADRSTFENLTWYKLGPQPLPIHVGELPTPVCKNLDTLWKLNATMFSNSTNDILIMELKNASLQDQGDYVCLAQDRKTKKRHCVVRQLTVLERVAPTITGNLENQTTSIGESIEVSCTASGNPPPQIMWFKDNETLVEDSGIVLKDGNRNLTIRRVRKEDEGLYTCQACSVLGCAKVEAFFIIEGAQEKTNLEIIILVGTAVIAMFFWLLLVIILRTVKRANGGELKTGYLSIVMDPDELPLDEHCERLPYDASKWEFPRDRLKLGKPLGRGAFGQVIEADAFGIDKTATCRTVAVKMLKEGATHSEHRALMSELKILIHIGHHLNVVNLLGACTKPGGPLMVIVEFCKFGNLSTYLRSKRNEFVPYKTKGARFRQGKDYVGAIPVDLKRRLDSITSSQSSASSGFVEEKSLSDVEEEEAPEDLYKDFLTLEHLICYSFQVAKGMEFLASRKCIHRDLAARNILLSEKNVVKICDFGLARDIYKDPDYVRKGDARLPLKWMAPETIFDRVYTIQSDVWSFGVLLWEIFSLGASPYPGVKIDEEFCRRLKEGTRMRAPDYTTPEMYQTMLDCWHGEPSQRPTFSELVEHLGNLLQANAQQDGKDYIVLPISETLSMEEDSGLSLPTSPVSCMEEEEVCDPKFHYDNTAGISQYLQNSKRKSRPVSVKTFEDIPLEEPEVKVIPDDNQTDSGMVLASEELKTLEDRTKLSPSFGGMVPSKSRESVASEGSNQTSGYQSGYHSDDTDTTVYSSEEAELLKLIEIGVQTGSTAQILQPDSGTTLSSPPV
Description: Inhibition of recombinant GST tagged VEGFR2 (789 to 1356) (unknown origin) transfected in insect sf9 cells after 120 mins by wallac counting analysis

[3] = Volume of distribution at steady state in Sprague-Dawley rat at 2 mg/kg, iv; type: ADME, organism-based; parameters: dose 2 mg/kg, route intravenous; details: in vivo, read-out: Vdss
[4] = Plasma clearance in Sprague-Dawley rat at 2 mg/kg, iv; type: ADME, organism-based; parameters: dose 2 mg/kg, route intravenous
[5] = AUC (0 to infinity) in Sprague-Dawley rat at 2 mg/kg, iv; type: ADME, organism-based; parameters: time infinity, dose 2 mg/kg, route intravenous; details: plasma
[6] = Half life in Sprague-Dawley rat at 2 mg/kg, iv; type: ADME, organism-based; parameters: dose 2 mg/kg, route intravenous; details: in vivo

| SMILES | GI50 (MOLM-13) | IC50 [1] | IC50 (Aurora kinase A) | IC50 [2] | Vd [3] | clearance [4] | AUC(0-inf) [5] | half-life [6] |
| --- | --- | --- | --- | --- | --- | --- | --- | --- |
| CN1CCN(Cc2ccc(C(=O)Nc3cc(-c4ccc(CNC(=O)Nc5ccccc5)cc4)n[nH]3)cc2)CC1 | 4 nM | 22 nM | > 1000 nM | 82 nM | – | – | – | – |
| CN1CCN(c2ccc(C(=O)Nc3cc(-c4ccc(NC(=O)Nc5cc(C(C)(C)C)on5)cc4)n[nH]3)cc2)CC1 | 5 nM | 30 nM | 53 nM | 12 nM | – | – | – | – |
| Cc1cc(NC(=O)Nc2ccc(-c3cc(NC(=O)c4ccc(N5CCN(C)CC5)cc4)[nH]n3)cc2Cl)no1 | 7 nM | 390 nM | 600 nM | > 1000 nM | – | – | – | – |
| CN1CCN(c2ccc(C(=O)Nc3cc(-c4ccc(NC(=O)Nc5cccnc5)cc4)n[nH]3)cc2)CC1 | 22 nM | 74 nM | 300 nM | 190 nM | – | – | – | – |
| CN1CCN(c2ccc(C(=O)Nc3cc(-c4cccc(NS(=O)(=O)c5ccccc5)c4)n[nH]3)cc2)CC1 | 21 nM | 11 nM | – | – | – | – | – | – |
| Cc1cc(-c2cc(NC(=O)c3ccc(CN4CCN(C)CC4)cc3)[nH]n2)ccc1NC(=O)Nc1cc(C(C)(C)C)on1 | – | – | – | – | 10 L/kg | 11.3 mL/min/kg | 3020 ng·h/mL | 17 h |
| Cc1nc(Nc2cc(-c3ccc(CNC(=O)Nc4cc(C(C)(C)C)on4)cc3)n[nH]2)cc(N2CCN(CCO)CC2)n1 | 5 nM | 95 nM | 490 nM | 50 nM | – | – | – | – |
| CN1CCN(c2ccc(C(=O)Nc3cc(-c4ccc(NC(=O)Nc5ccccn5)cc4)n[nH]3)cc2)CC1 | 42 nM | 40 nM | 610 nM | 73 nM | – | – | – | – |
| CN1CCN(c2ccc(C(=O)Nc3cc(-c4ccc(NC(=O)N5CCCC5)cc4)n[nH]3)cc2)CC1 | 37 nM | 70 nM | > 1000 nM | > 1000 nM | – | – | – | – |
| Cc1nc(Nc2cc(-c3ccc(CNC(=O)Nc4cc(C)on4)cc3)n[nH]2)cc(N2CCN(C)CC2)n1 | 9 nM | 21 nM | 320 nM | 100 nM | – | – | – | – |
| Cc1cnc(NC(=O)Nc2ccc(-c3cc(NC(=O)c4ccc(N5CCN(C)CC5)cc4)[nH]n3)cc2)s1 | 9 nM | 50 nM | 65 nM | 35 nM | – | – | – | – |
| CN1CCN(c2ccc(C(=O)Nc3cc(-c4ccc(NC(=O)Nc5ccccc5)cc4)n[nH]3)cc2)CC1 | 6 nM | 13 nM | 330 nM | 26 nM | – | – | – | – |
| Cc1nc(Nc2cc(-c3ccc(CNC(=O)Nc4cccc(Cl)c4)cc3)n[nH]2)cc(N2CCNCC2)n1 | 18 nM | 26 nM | 790 nM | 38 nM | – | – | – | – |
| CN1CCN(c2ccc(C(=O)Nc3cc(-c4ccc(NC(=O)NC5CC5)cc4)n[nH]3)cc2)CC1 | 18 nM | 52 nM | > 1000 nM | 300 nM | – | – | – | – |
| Cc1nc(Nc2cc(-c3ccc(CNC(=O)Nc4cc(C(C)(C)C)on4)cc3)n[nH]2)cc(N2CCNCC2)n1 | 8 nM | 26 nM | 710 nM | 85 nM | – | – | – | – |
| CCNC(=O)Nc1ccc(-c2cc(NC(=O)c3ccc(N4CCN(C)CC4)cc3)[nH]n2)cc1 | 33 nM | 94 nM | > 1000 nM | 100 nM | – | – | – | – |
| O=C(NCc1ccc(-c2cc(NC(=O)c3ccc(OCCN4CCOCC4)cc3)[nH]n2)cc1)Nc1ccc(F)cc1 | 5 nM | 66 nM | > 1000 nM | 130 nM | – | – | – | – |
| Cc1nc(Nc2cc(-c3ccc(NC(=O)Nc4ccccc4)cc3)n[nH]2)cc(N2CCN(C)CC2)n1 | 160 nM | 280 nM | 500 nM | 620 nM | – | – | – | – |
| Cc1nc(Nc2cc(-c3ccc(CNC(=O)Nc4cc(C)on4)cc3)n[nH]2)cc(N2CCN(CCO)CC2)n1 | 16 nM | 17 nM | 98 nM | 120 nM | – | – | – | – |
| Cc1cc(NC(=O)Nc2ccc(-c3cc(NC(=O)c4ccc(N5CCN(C)CC5)cc4)[nH]n3)cc2)no1 | 3 nM | 6 nM | 120 nM | 31 nM | – | – | – | – |

The remaining compounds from weak to strong by GI50 (MOLM-13), led by results:

| GI50 (MOLM-13) | IC50 [1] | IC50 (Aurora kinase A) | IC50 [2] | Vd [3] | clearance [4] | AUC(0-inf) [5] | half-life [6] | SMILES |
| --- | --- | --- | --- | --- | --- | --- | --- | --- |
| 3 nM | 9 nM | 760 nM | 54 nM | – | – | – | – | O=C(NCc1ccc(-c2cc(NC(=O)c3ccc(OCCN4CCOCC4)cc3)[nH]n2)cc1)Nc1ccccc1 |
| 3 nM | 16 nM | > 1000 nM | 71 nM | – | – | – | – | O=C(NCc1ccc(-c2cc(NC(=O)c3ccc(OCCN4CCOCC4)cc3)[nH]n2)cc1)Nc1ccc(Cl)cc1 |
| 3 nM | 35 nM | 120 nM | 12 nM | – | – | – | – | Cc1nc(Nc2cc(-c3ccc(CNC(=O)Nc4cc(C(C)(C)C)on4)cc3)n[nH]2)cc(N2CCN(C)CC2)n1 |
| 3 nM | 4 nM | > 1000 nM | 18 nM | 8 L/kg | 17.2 mL/min/kg | 2120 ng·h/mL | 11 h | CN1CCN(Cc2ccc(C(=O)Nc3cc(-c4ccc(CNC(=O)Nc5cc(C(C)(C)C)on5)cc4)n[nH]3)cc2)CC1 |
| 2 nM | – | – | – | – | – | – | – | O=C(NCc1ccc(-c2cc(NC(=O)c3ccc(OCCN4CCCC4)cc3)[nH]n2)cc1)OCc1ccccc1 |
| 2 nM | 13 nM | 940 nM | 50 nM | – | – | – | – | Cc1cc(NC(=O)NCc2ccc(-c3cc(NC(=O)c4ccc(N5CCN(C)CC5)cc4)[nH]n3)cc2)no1 |
| 2 nM | 15 nM | 47 nM | 12 nM | – | – | – | – | CC(C)(C)c1cc(NC(=O)Nc2ccc(-c3cc(NC(=O)c4ccc(OCCN5CCCC5)cc4)[nH]n3)cc2)no1 |
| 2 nM | 19 nM | 160 nM | 22 nM | – | – | – | – | CC(C)(C)c1cc(NC(=O)Nc2ccc(-c3cc(NC(=O)c4ccc(OCCN5CCOCC5)cc4)[nH]n3)cc2)no1 |
| 1 nM | 8 nM | 160 nM | 12 nM | – | – | – | – | CN1CCN(Cc2ccc(C(=O)Nc3cc(-c4ccc(NC(=O)Nc5cc(C(C)(C)C)on5)cc4)n[nH]3)cc2)CC1 |
| 1 nM | 9 nM | 250 nM | 38 nM | – | – | – | – | Cc1cc(NC(=O)Nc2ccc(-c3cc(NC(=O)c4ccc(N5CCN(C)CC5)cc4)[nH]n3)cc2C)no1 |
